Results published in PubChem BioAssay AID220 (DTP/NCI, 2004).
Values joined by “and” are separate entries in the source; they are usually repeats but may differ in a detail not shown here. Equal values may be shown once. Results filed as inconclusive are left out. Starred links: 1 amine or outer side, 2 acyl side, 3 side chain; linkers in the order of their positions; H or OH if unused. Positions of bridges follow the written chain, without caps; N, C: chain ends. Non-standard residues stand in square brackets, D forms with d. Residues, ends and D or L forms follow the SMILES beside them. Chains are numbered I, II in the order given. Actinocin(9to1) = Cc1c2oc3c(C)ccc(C(=O)[*:1])c3nc-2c(C(=O)[*:2])c(N)c1=O; aThr = C[C@H](O)[C@H](N)C(=O)O; NMeV = CN[C@H](C(=O)O)C(C)C; Sar = CNCC(=O)O

Tested on: CD8F1 mice, subcutaneous mammary adenocarcinoma, T/C%
Test: NCI In Vivo Anticancer Drug Screen. Data for tumor model Mammary Adenocarcinoma CD8F1 (subcutaneous) in CD8F1
Details: higher = larger tumour
Procedure, shortened: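 Ratio of treated to vehicle-control outcome, based on either survival or tumor size, in mice bearing transplantable tumors given the test compound.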

Cc1c2oc3c(C)ccc(C(=O)N[C@@H]4C(=O)N[C@H](C(C)C)C(=O)N5CCC[C@H]5C(=O)N(C)CC(=O)N(C)[C@@H](C(C)C)C(=O)O[C@H]4C)c3nc-2c(C(=O)N[C@@H]2C(=O)N[C@H](C(C)C)C(=O)N3CCC[C@H]3C(=O)N(C)CC(=O)N(C)[C@@H](C(C)C)C(=O)O[C@H]2C)c(N)c1=O (I: [aThr][dV]P[Sar][NMeV] / II: [aThr][dV]P[Sar][NMeV]; ester I:1-I:C, II:1-II:C; linker I:N-II:N via Actinocin(9to1))
T/C (endpoint: mean tumor weight, dose: 0.02 mg/kg/injection, schedule: Q01DX009 (ip), vehicle: saline): 98 % of control
T/C (endpoint: mean tumor weight, dose: 0.03 mg/kg/injection, schedule: Q01DX009 (ip), vehicle: saline + alcohol): 73 % of control
T/C (endpoint: mean tumor weight, dose: 0.04 mg/kg/injection, schedule: Q01DX009 (ip), vehicle: saline + alcohol): 65 % of control
T/C (endpoint: mean tumor weight, dose: 0.04 mg/kg/injection, schedule: Q01DX009 (ip), vehicle: saline): 28 % of control
T/C (endpoint: mean tumor weight, dose: 0.1 mg/kg/injection, schedule: Q07DX007 (ip), vehicle: saline): 36 % of control
T/C (endpoint: mean tumor weight, dose: 0.2 mg/kg/injection, schedule: Q07DX007 (ip), vehicle: saline): 5 % of control
T/C (endpoint: median tumor weight (est.), dose: 0.03 mg/kg/injection, schedule: Q07DX005 (ip), vehicle: saline): 56 % of control
T/C (endpoint: median tumor weight (est.), dose: 0.15 mg/kg/injection, schedule: Q07DX005 (ip), vehicle: saline): 34 % of control and 49 % of control
T/C (endpoint: median tumor weight (est.), dose: 0.3 mg/kg/injection, schedule: Q07DX005 (ip), vehicle: saline): 24 % of control
T/C (endpoint: median tumor weight (est.), dose: 12.5 micrograms/kg/injection, schedule: Q07DX005 (ip), vehicle: saline): 66 % of control
T/C (endpoint: median tumor weight (est.), dose: 25.0 micrograms/kg/injection, schedule: Q07DX005 (ip), vehicle: saline): 60 % of control
T/C (endpoint: median tumor weight (est.), dose: 50.0 micrograms/kg/injection, schedule: Q07DX005 (ip), vehicle: saline): 70 % of control
T/C (endpoint: median tumor weight (est.), dose: 100.0 micrograms/kg/injection, schedule: Q07DX005 (ip), vehicle: saline): 38 % of control
T/C (endpoint: median tumor weight (est.), dose: 200.0 micrograms/kg/injection, schedule: Q07DX005 (ip), vehicle: saline): 9 % of control
T/C (endpoint: median tumor weight change, dose: 0.12 mg/kg/injection, schedule: Q01DX001 (ip), vehicle: saline): 55 % of control
T/C (endpoint: median tumor weight change, dose: 0.25 mg/kg/injection, schedule: Q01DX001 (ip), vehicle: saline): 30 % of control and 39 % of control
T/C (endpoint: median tumor weight change, dose: 0.5 mg/kg/injection, schedule: Q01DX001 (ip), vehicle: saline): 7 % of control and 27 % of control

Nc1ncnc2c1ccn2C1OC(CO)C(O)C1O (stereo not given)
T/C (endpoint: mean tumor weight, dose: 0.25 mg/kg/injection, schedule: Q01DX009 (ip), vehicle: saline): 162 % of control
T/C (endpoint: mean tumor weight, dose: 0.5 mg/kg/injection, schedule: Q01DX009 (ip), vehicle: saline): 98 % of control
T/C (endpoint: mean tumor weight, dose: 1.0 mg/kg/injection, schedule: Q01DX009 (ip), vehicle: saline): 114 % of control
T/C (endpoint: mean tumor weight, dose: 1.0 mg/kg/injection, schedule: Q07DX005 (ip), vehicle: saline): 117 % of control
T/C (endpoint: mean tumor weight, dose: 4.0 mg/kg/injection, schedule: Q07DX005 (ip), vehicle: saline): 361 % of control
T/C (endpoint: median tumor weight (est.), dose: 0.5 mg/kg/injection, schedule: Q07DX005 (ip), vehicle: Klucel (hydroxypropylcellulose) (HPC)): 195 % of control
T/C (endpoint: median tumor weight (est.), dose: 8.0 mg/kg/injection, schedule: Q07DX005 (ip), vehicle: Klucel (hydroxypropylcellulose) (HPC)): 114 % of control

N#CCCN(C(=S)Nc1cccc(C(F)(F)F)c1)C1CCCCC1
T/C (endpoint: median tumor weight (est.), dose: 25.0 mg/kg/injection, schedule: Q07DX005 (ip), vehicle: Klucel (hydroxypropylcellulose) (HPC)): 66 % of control
T/C (endpoint: median tumor weight (est.), dose: 50.0 mg/kg/injection, schedule: Q07DX005 (ip), vehicle: Klucel (hydroxypropylcellulose) (HPC)): 116 % of control
T/C (endpoint: median tumor weight (est.), dose: 100.0 mg/kg/injection, schedule: Q07DX005 (ip), vehicle: Klucel (hydroxypropylcellulose) (HPC)): 75 % of control
T/C (endpoint: median tumor weight (est.), dose: 200.0 mg/kg/injection, schedule: Q07DX005 (ip), vehicle: Klucel (hydroxypropylcellulose) (HPC)): 60 % of control
T/C (endpoint: median tumor weight (est.), dose: 400.0 mg/kg/injection, schedule: Q07DX005 (ip), vehicle: Klucel (hydroxypropylcellulose) (HPC)): 38 % of control
T/C (endpoint: median tumor weight (est.), dose: 800.0 mg/kg/injection, schedule: Q07DX005 (ip), vehicle: Klucel (hydroxypropylcellulose) (HPC)): 60 % of control
